Results: ChEMBL document CHEMBL3608211, “Exploration of Pharmacophore in Chrysosplenol C as Activator in Ventricular Myocyte Contraction” (ACS Med Chem Lett, 2015)
≈ marks a conversion by molar mass, not a printed value. Calls of active or inactive are those of the source. The rule behind the calls is not given here.

Legend:
[1] = Positive inotropic effect in Sprague-Dawley rat ventricular myocytes assessed as change in ventricular cell contractility at 10 uM by video edge detector relative to control; format: functional, Ventricular myocyte
[2] = Positive inotropic effect in Sprague-Dawley rat ventricular myocytes assessed as change in ventricular cell contractility at 50 uM by video edge detector relative to control; format: functional, Ventricular myocyte
Bos taurus = species: Bos taurus; experiment: Activation of cardiac myosin S1 ATPase in bovine sarcomere at 10 uM by spectrophometric analysis in presence of actin thin filament complex relative to control
Oryctolagus cuniculus = species: Oryctolagus cuniculus; experiment: Activation of skeletal myosin S1 ATPase in rabbit psoas muscle at 10 uM in presence of actin thin filament complex; format: tissue-based
[3] = Solubility of the compound in DMSO/tyrode solution; format: physicochemical
Gallus gallus = species: Gallus gallus; experiment: Activation of smooth myosin S1 ATPase in chicken gizzard at 10 uM in presence of actin thin filament complex
[4] = Positive inotropic effect in Sprague-Dawley rat ventricular myocytes assessed as change in ventricular cell contractility at 400 nM by video edge detector relative to control; format: functional, Ventricular myocyte
[5] = Positive inotropic effect in Sprague-Dawley rat ventricular myocytes assessed as change in ventricular cell contractility at 1 uM by video edge detector relative to control; format: functional, Ventricular myocyte

Row | Activity (Bos taurus) | Activity (Oryctolagus cuniculus) | solubility [3] | Activity (Gallus gallus) | Structure (SMILES) | Activity [1] | Activity [2] | Activity [4] | Activity [5]
1 |  |  |  |  | COc1ccc(-c2oc3cc(OC)c(OC)c(O)c3c(=O)c2OC)cc1OC [ARTEMETIN] | 8.7% | 21.6% |  | 
2 | 28.1% | inactive | 14.1 µg/mL (≈ 39.1 µM) | inactive | COc1cc(-c2oc3cc(OC)c(O)c(O)c3c(=O)c2OC)ccc1O [CHRYSOSPLENOL C] | 16.6% | 53% |  | 
3 |  |  |  |  | COc1cc(-c2oc3cccc(O)c3c(=O)c2O)ccc1O | 0% | 0% |  | 
4 |  |  |  |  | COc1cc(/C=C/C(=O)c2ccc(Cl)cc2O)ccc1O | 0% | 0% |  | 
5 |  |  |  |  | COc1cc(-c2oc3ccc(O)cc3c(=O)c2O)ccc1O | 0% | 0% |  | 
6 |  |  |  |  | COc1ccc2c(=O)c(OC)c(-c3ccc(Cl)cc3)oc2c1 | 0% | 0% |  | 
7 | 36.4% | inactive |  | inactive | COc1cc(-c2oc3cc(Cl)ccc3c(=O)c2OC)ccc1O | 43.9% | 41.8% |  | 
8 | 0% |  |  |  | COc1ccc2c(=O)c(O)c(-c3ccc(O)c(OC)c3)oc2c1 | 8.17% | 3.98% |  | 
9 |  |  |  |  | O=c1c(O)c(-c2ccc(O)cc2)oc2cc(Cl)ccc12 | 0% | 11% |  | 
10 | 28.9% | inactive |  | inactive | COc1c(-c2ccc(O)cc2)oc2cc(Cl)ccc2c1=O | 49.6% | 62.1% |  | 
11 |  |  |  |  | COc1cccc(-c2oc3cc(Cl)ccc3c(=O)c2O)c1 | 0% | 0% |  | 
12 |  |  |  |  | COc1c(-c2ccc(Cl)cc2)oc2cc(Cl)ccc2c1=O | 0% | 0% |  | 
13 | 80.4% |  |  |  | COC(=O)N1CCN(Cc2cccc(NC(=O)Nc3ccc(C)nc3)c2F)CC1 [OMECAMTIV MECARBIL] |  |  | 59.3% | 33.8%
14 |  |  |  |  | COc1cc(-c2oc3ccc(O)cc3c(=O)c2OC)ccc1O | 3.9% | 9.3% |  | 
15 | 38.7% | inactive |  | inactive | COc1c(-c2cccc(O)c2)oc2cc(Cl)ccc2c1=O | 54.8% | 53.9% |  | 
16 | 33.7% | inactive | 17.1 µg/mL (≈ 52 µM) | inactive | COc1ccc2c(=O)c(OC)c(-c3ccc(O)c(OC)c3)oc2c1 | 60.7% | 45.3% |  | 
17 |  |  |  |  | COc1cc(-c2cc(=O)c3ccc(Cl)cc3o2)ccc1O | 0% | 0% |  | 
18 | 0% |  |  |  | COc1cc(-c2oc3cccc(O)c3c(=O)c2OC)ccc1O | 4.2% | 12.3% |  | 
19 |  |  |  |  | COc1ccc2c(=O)c(O)c(-c3ccc(O)cc3)oc2c1 | 8.87% | 23.1% |  | 
20 | 30.9% | inactive |  | inactive | COc1ccc2c(=O)c(OC)c(-c3ccc(O)cc3)oc2c1 | 42.1% | 38.6% |  | 
21 |  |  |  |  | COc1cc(-c2oc3ccccc3c(=O)c2OC)ccc1O | 30.5% | 44.9% |  | 
22 |  |  |  |  | COc1cccc(-c2oc3cc(Cl)ccc3c(=O)c2OC)c1 | 16.6% | 23.6% |  | 
23 |  |  |  |  | COc1cc(-c2oc3ccccc3c(=O)c2O)ccc1O | 10.5% | 10.3% |  | 
24 |  |  |  |  | COc1cc(-c2oc3cc(Cl)ccc3c(=O)c2O)ccc1O | 23.5% | 57.3% |  | 
